From patent US9616028B2, “Bilayer tablet formulations” (AstraZeneca AB, priority 2009, dated 2017)

Test system: patients with inadequately controlled type 2 diabetes
Description: The data represent findings from a randomized, double-blind, placebo-controlled study of 546 individuals with type 2 diabetes whose HbA1c was greater than or equal to 7.0 percent and less than or equal to 10 percent at baseline. […] Patients in all arms also received metformin (greater than or equal to 1500 mg/d). […] Exploratory endpoints included body weight decrease of greater than or equal to 5 percent or greater than or equal to 10 percent as well as body weight percent change from baseline.

CCOc1ccc(Cc2cc([C@@H]3O[C@H](CO)[C@@H](O)[C@H](O)[C@H]3O)ccc2Cl)cc1 [dapagliflozin, (2S,3R,4R,5S,6R)-2-(4-chloro-3-(4-ethoxybenzyl)phenyl)-6-(hydroxymethyl)tetrahydro-2H-pyran-3,4,5-triol]
mean reductions in body weight compared to individuals taking placebo (add-on to metformin, 24 weeks): statistically greater
adjusted mean change in FPG from baseline at Week 24 (dapagliflozin 10 mg plus metformin): -23.5 mg/dL
patients who achieved weight losses greater than or equal to 5 percent compared to placebo (exploratory endpoint, add-on to metformin, 24 weeks): more patients
